Measured values reported in paper PMC5895817, “A Bowman-Birk type chymotrypsin inhibitor peptide from the amphibian, Hylarana erythraea” (Scientific Reports, 2018).
Entries after “also recorded” stand apart in the source; their conditions may differ.

How the values were obtained:
[1] = biological target: T1, human 20 S proteasome (Homo sapiens, UniProt P28074); test: Human 20 S proteasome inhibition (chymotrypsin-like activity); format: biochemical; settings: chymotrypsin-like activity of human 20 S proteasome (7 nM working solution); substrate Suc-Leu-Leu-Val-Tyr-AMC; 50 mM HEPES, 0.035% SDS, pH 7.5; pre-incubation 15 min, 37 °C; Morrison equation; duplicate, repeated three times
T1 construct: purchased Biochem, Boston, MA, USA
Method: (§1) Phe-Pro-Arg-AMC, Succinyl-Ala-Ala-Pro-Phe-AMC and Suc-Leu-Leu-Val-Tyr-AMC (Abcam, Cambridge, UK) were used as substrates for trypsin, chymotrypsin and human 20 S proteasome respectively. 10 μl trypsin/chymotrypsin working solution (1 µg/ml) were added to the wells of a micro-titre plate containing 180 μl substrate and various inhibitor solutions. 10 μl human 20 S proteasome (Biochem, Boston, MA, USA) working solution (7 nM) in 50 mM HEPES buffer containing 0.035% SDS, pH 7.5 was added to the well of a micro-titre plate containing 180 μl substrate solution and each of various inhibitor solution. Each determination was carried out in duplicate. The rate of hydrolysis of the trypsin/chymotrypsin substrate was monitored subsequently and continuously, at 37 °C, by measuring the rate of increase of fluorescence in a FLUOstar OPTIMA multi-well plate reader (BMG Labtech, Ortenberg, Germany). For the 20 S proteasome, the rate of hydrolysis of the substrate was monitored after a pre-incubation for 15 min, at 37 °C. […] Each assay was repeated three times.

[2] = tested on: HMEC-1; test: MTT cell viability, normal cell line HMEC-1; format: cell-based; settings: 24 h, 5 replicates, three independent experiments
Method: The cancer cell line H157 (ATCC-CRL-5802, ATCC, Teddington, Middlesex, UK) and PC-3 (ATCC-CRL-1435, ATCC, Teddington, Middlesex, UK) were cultured in RPMI-1640 culture medium (Invitrogen, Paisley, UK) containing 10% FBS and 1% Penicillin-Streptomycin. MCF-7 (ATCC-HTB-22, ATCC, Teddington, Middlesex, UK) was cultured in DMEM culture medium (Invitrogen, Paisley, UK) containing 10% FBS and 1% Penicillin-Streptomycin. The normal cell line HMEC-1 (ATCC-CRL-3243, ATCC, Teddington, Middlesex, UK) was cultured in MCDB131 medium (Gibco, Paisley, UK) containing 10% FBS (foetal bovine serum, obtained from Sigma-Aldrich, St. Louis, MO, USA), 1% Penicillin-Streptomycin (Invitrogen, Paisley, UK), epidermal growth factor (10 ng/mL), hydrocortisone (1 μg/mL, obtained from Sigma-Aldrich, St. Louis, MO, USA) and glutamine (10 mM). Cells were seeded into a 96-well plate and incubated for 24 h (37 °C, 5% CO2) followed by starvation using serum-free medium. Sample solutions were loaded on this plate which was further incubated for 24 h. The 3-(4,5-dimethylthiazol-2-yl)-2,5-diphenyltetrazolium bromide (MTT) solution (5 mg/ml, 10 μl/well) was utilized to form the formazan after a 4 h incubation. Cell-produced-formazan was dissolved in DMSO (100 μl/well). The absorbance was recorded by using an ELx808^TM Absorbance Microplate Reader at 570 nm (BioTek Instruments, Inc., Winooski, VT, USA). […]

[3] = biological target: T2, trypsin (Bos taurus, UniProt P00760); test: Trypsin/chymotrypsin inhibition assay (Morrison): trypsin; format: biochemical; settings: substrate Phe-Pro-Arg-AMC, 37 °C, fluorescence, Morrison equation, each determination in duplicate, assay repeated three times
T2 construct: gene PRSS1
T2 sequence (P00760 24-246): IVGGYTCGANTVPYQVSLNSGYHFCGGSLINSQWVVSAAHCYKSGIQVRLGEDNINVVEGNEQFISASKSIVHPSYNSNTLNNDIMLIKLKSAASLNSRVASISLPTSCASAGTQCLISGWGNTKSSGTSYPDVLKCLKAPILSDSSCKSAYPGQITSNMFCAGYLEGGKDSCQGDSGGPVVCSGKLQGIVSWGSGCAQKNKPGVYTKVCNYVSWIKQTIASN
Method: as §1

[4] = tested on: horse erythrocytes; test: Haemolysis activity test; format: cell-based; settings: 2% suspension in PBS, 1–512 μM, 37 °C, 4 h, absorbance 550 nm, 5 replicates, three independent experiments
Method: Completely washed horse erythrocyte (TCS Biosciences Ltd., Buckingham, UK) suspension was prepared using phosphate-buffered saline (PBS). A series of peptide solutions were incubated with a 2% suspension of red blood cells at final concentrations of 1–512 μM at 37 °C for 4 h. After the incubation, 200 μl of each supernatant was transferred into a 96-well plate and the absorbance at 550 nm was measured with a Synergy HT plate reader (BioTek Instruments, Inc., Winooski, VT, USA). The BioTek’s Gen5^TM software was used to analyse the result. (Biolise BioTek EL808, Winooski, VT, USA). All the peptide concentrations and controls had 5 replicates in single 96-well plate and three independent experiments were performed.

[5] = biological target: chymotrypsin (Bos taurus, UniProt P00766); test: Trypsin/chymotrypsin inhibition assay (Morrison): chymotrypsin; format: biochemical
Method: as §1

| Ki [1] [µM] | Structure (SMILES) | cytotoxicity / growth inhibition on normal cells HMEC-1 [2] | Ki [3] [µM] | haemolysis [4] | Ki [5] [µM] |
| --- | --- | --- | --- | --- | --- |
| 8.55 ± 1.84 | CC[C@H](C)[C@H](NC(=O)[C@@H]1CSSC[C@H](NC(=O)CNC(=O)[C@H](CCCNC(=N)N)NC(=O)[C@H](CC(C)C)NC(=O)[C@@H](NC(=O)[C@@H](N)[C@@H](C)O)C(C)C)C(=O)N[C@@H](Cc2c[nH]c3ccccc23)C(=O)N[C@@H]([C@@H](C)O)C(=O)N[C@@H](Cc2ccccc2)C(=O)N[C@@H](CO)C(=O)N[C@@H](Cc2ccccc2)C(=O)N2CCC[C@H]2C(=O)N2CCC[C@H]2C(=O)N[C@@H](CCCCN)C(=O)N2CCC[C@H]2C(=O)N1)C(N)=O [HECI, TVLRGCWTFSFPPKPCI-NH2] |  |  |  |  |
|  | CC[C@H](C)[C@H](NC(=O)[C@@H]1CSSC[C@H](NC(=O)CNC(=O)[C@H](CCCNC(=N)N)NC(=O)[C@H](CC(C)C)NC(=O)[C@@H](NC(=O)[C@@H](N)[C@@H](C)O)C(C)C)C(=O)N[C@@H](Cc2c[nH]c3ccccc23)C(=O)N[C@@H]([C@@H](C)O)C(=O)N[C@@H](CCCCN)C(=O)N[C@@H](CO)C(=O)N[C@@H](Cc2ccccc2)C(=O)N2CCC[C@H]2C(=O)N2CCC[C@H]2C(=O)N[C@@H](CCCCN)C(=O)N2CCC[C@H]2C(=O)N1)C(N)=O [K^9-HECI, TVLRGCWTKSFPPKPCI-NH2] | low degree of cytotoxicity; also recorded: low degree of inhibition; also recorded: only slight cytotoxicity on HMEC-1 | 0.79 ± 0.04 | low degree of haemolytic activity; also recorded: low degree of haemolysis | 13.9 ± 1.09 |
